Assay results published in patent US20160120854A1, “PHARMACEUTICAL COMPOSITIONS” (BAYER PHARMA AKTIENGESELl SCHAFT, priority 2013, published 2016).
Converted amounts (≈) assume the structure as drawn.

What was measured:
Type in all cases: physicochemical
[1] = Stability in PEG6000 melt; conditions: 20% drug load, minimally two months, room temperature
Method: Nine parts of PEG6000 were melted in an aluminium cup (70° to 90° C.). One part of (2R)-2-(4-fluorophenyl)-N-[4-(2-{[2-methoxy-4-(methylsulfonyl)phenyl]-amino}[1,2,4]triazolo[1,5-a]pyridin-6-yl)phenyl]propanamide was added to the PEG 6000 melt. The mixture was stirred with a glass stick at approximately 90° C. After complete dissolution of (2R)-2-(4-fluorophenyl)-N-[4-(2-{[2-methoxy-4-(methylsulfonyl)phenyl]amino}[1,2,4]triazolo[1,5-a]pyridin-6-yl)phenyl]propanamide, the melt was cooled down by embedding the cup in a ice-water/NaCl mixture for several minutes. The solidified melt was pestled. (2R)-2-(4-fluorophenyl)-N-[4-(2-{[2-methoxy-4-(methylsulfonyl)phenyl]-amino}[1,2,4]triazolo[1,5-a]pyridin-6-yl)phenyl]propanamide is stable in PEG6000 melt with 20% drug load for minimally two months at room temperature.

[2] = Nine months stability study in PEG400 based LSF; conditions: nine months at 25 and 40° C.
[3] = Solubility in PEG400 based vehicles

stability in PEG6000 melt [1]: stable
solubility ([3]; aqueous with cosolvent or surfactant or cyclodextrin, in PEG400/PVP/water 8:1:1): ~25 mg/mL (≈ 44.7 mM)
solubility ([3]; organic solvent or mixture, in PEG400/PVP 8:2): ~25 mg/mL (≈ 44.7 mM)
solubility ([3]; organic solvent or mixture, in PEG400 based LSF (PEG400/Tween 80/L-Menthol 97:2, 5:0, 5)): ~25 mg/mL (≈ 44.7 mM)
SMILES: COc1cc(S(C)(=O)=O)ccc1Nc1nc2ccc(-c3ccc(NC(=O)[C@H](C)c4ccc(F)cc4)cc3)cn2n1 [compound A, (2R)-2-(4-fluorophenyl)-N-[4-(2-{[2-methoxy-4-(methylsulfonyl)phenyl]-amino}[1,2,4]triazolo[1,5-a]pyridin-6-yl)phenyl]propanamide]
stability in PEG400 based LSF [2]: no significant time dependant instability
